The record followed here is patent US7439232B2, “Heteroaryl 5-thio-β-D-glucopyranoside derivatives and therapeutic agents for diabetes containing the same” (Taisho Pharmaceutical Co., Ltd., priority 2003, dated 2008).

Each structure is given as a SMILES string.

The term melting point denotes the temperature, or range, at which the solid turns liquid. `CCc1ccc(Cc2ccncc2O[C@@H]2S[C@H](CO)[C@@H](O)[C@H](O)[C@H]2O)cc1` [Compound 20, 4′-(4′-ethylbenzyl)pyridin-3′-yl 5-thio-β-D-glucopyranoside] came in with a melting point of 184 to 187 °C. The same measure for `CCc1ccc(Cc2nccnc2O[C@@H]2S[C@H](CO)[C@@H](O)[C@H](O)[C@H]2O)cc1` [Compound 23, 3′-(4′-ethylbenzyl)-1′H-pyrazin-2′-yl 5-thio-β-D-glucopyranoside]: 181 to 183.5 °C. The same measure for `COc1ccc(Cc2c(O[C@@H]3S[C@H](CO)[C@@H](O)[C@H](O)[C@H]3O)n[nH]c2C)cc1F` [Compound 4, 4′-[(3′-fluoro-4′-methoxyphenyl)methyl]-5′-methyl-1′H-pyrazol-3′-yl 5-thio-β-D-glucopyranoside]: 145 to 147 °C; for `CCOC(=O)OC[C@H]1S[C@@H](Oc2nn(C(=O)OCC)c(C)c2Cc2ccc(OC)cc2)[C@H](O)[C@@H](O)[C@@H]1O` [Compound 8, 1′-ethoxycarbonyl-4′-[(4′-methoxyphenyl)methyl]-5′-methyl-pyrazol-3′-yl 6-O-ethoxycarbonyl-5-thio-β-D-glucopyranoside]: 106 to 110 °C.

On to `OCCc1ccc(Cc2ccncc2O[C@@H]2S[C@H](CO)[C@@H](O)[C@H](O)[C@H]2O)cc1` [Compound 32, 4′-[4′-(2′-hydroxyethyl)benzyl]pyridin-3′-yl 5-thio-β-D-glucopyranoside], for which the melting point was in the range of 194.5 to 195 °C. The same measure for `CCc1ccc(Cc2c(C)nc(C)nc2O[C@@H]2S[C@H](CO)[C@@H](O)[C@H](O)[C@H]2O)cc1` [Compound 24, 5′-(ethylbenzyl)-2′,6′-dimethyl-3′H-pyrimidin-4′-yl 5-thio-β-D-glucopyranoside]: 143 to 147.5 °C.

`CCc1ccc(Cc2c(O[C@@H]3S[C@H](CO)[C@@H](O)[C@H](O)[C@H]3O)nn(C(C)C)c2C)cc1` [Compound 1, 4′-(4′-ethylbenzyl)-1′-isopropyl-5′-methyl-1′H-pyrazol-3′-yl 5-thio-β-D-glucopyranoside] displayed a melting point of 54 to 58.5 °C.
